Laboratory results reported in article PMC9398908, “GLP-1-mediated delivery of tesaglitazar improves obesity and glucose metabolism in male mice” (Nature Metabolism, 2022).
Several values for one entry are separate records, joined by “and”; a condition that tells them apart may be missing. Equal entries are not always repeated.

What was measured:
hGLP-1R [1] = target: T1, hGLP-1R (Homo sapiens, UniProt P43220); test: Ligand-induced cAMP production (CAMYEL BRET sensor) in hGLP-1R+ HEK293T cells; type: cell-based; conditions: HEK293 cells transfected with human GLP-1R; dose response, Fig. 1b; in words
T1 construct: host or cells: HEK293T, transient transfection
Method: (§1) HEK293T cells (700,000 per well) were seeded in six-well plates and incubated to 70% confluency in DMEM (10% FBS, 1% Pen/Strep). Twenty-four hours following seeding, transient transfections were performed using Lipofectamine 2000 (catalogue no. 11668019, Invitrogen) according to the manufacturer’s protocol without including additional transformation carrier DNA.
(§2) Twenty-four hours following transfection, HEK293T cells or MIN6 cells were washed with PBS and resuspended in FluoroBrite phenol red-free complete media (catalogue no. A1896701, Life Technologies) containing 5% FBS and 2 mM of L-glutamine (catalogue no. 25030081, Life Technologies). 100,000 cells per well were plated into poly-D-lysine-coated (catalogue no. P6403, Sigma-Aldrich) 96-well white polystyrene LumiNunc plates (catalogue no. 10072151, Thermo Fisher Scientific). After 24 h, the media was replaced with PBS (catalogue no. 10010056, Gibco) containing 10 μM of coelenterazine-h (catalogue no. S2011, Promega) or 1:500 dilution of NanoGlo (catalogue no. N1110, Promega). BRET measurements were taken every 30 s–2 min using a PHERAstar FS multi-mode microplate reader. […] The resulting ligand-specific ratiometric BRET signals were normalized to vehicle producing the ‘ligand-induced BRET ratio’[37], followed by an additional normalization step to well-specific baseline readings.

hGLP-1R [2] = target: T1, hGLP-1R; test: hGLP-1R-Rluc8 co-localization with lysosome marker Lamp1-mNeonGreen (BRET) in HEK293T cells; type: cell-based; conditions: HEK293 cells; Fig. 1g; in words
Method: as §1, §2

C57BL/6J DIO mice [3] = test: Fasting blood glucose, insulin and HOMA-IR in DIO mice (Fig. 2e,f; Extended Data Fig. 3c); type: in vivo, mouse; conditions: for HOMA IR: Suppl. Fig. 3c
Method: (§3) Glp1r^−/− mice were kindly provided by D. Drucker (University of Toronto, Canada). All wildtype and knockout mice used in our studies were in-house bred on a C57BL/6J background. Mice were double-housed and kept in a constant environment with the ambient temperature set to 22 ± 2 °C with constant humidity (45–65%) and a 12 h/12 h light/dark cycle with lights off from 06:00 until 18:00. For studies in DIO mice, male C57BL/6J mice were fed with a high-fat diet comprising 58% kilocalories from fat (D12331, Research Diets). db/db mice were fed with a normal chow diet (T1314, Altromin GmbH) throughout the study. At the beginning of each experiment, mice were equally distributed into experimental groups according to their body weight and body composition. All animal studies were approved by the State of Bavaria, Germany, or the Insitutional Animal Care and Use Committee of the University of Cincinnati, OH, USA and conducted on the basis of the underlying animal welfare law of the respective countries. Compounds were dissolved in PBS and were s.c. administered with a volume of 5 μl g^−1 body weight in the indicated doses between 15:00 and 16:00.

[4] = tested on: Fabp4, Plin2, Arntl, Sema3c; test: PPAR target gene expression in liver (Fabp4, Plin2) and skeletal muscle (Arntl, Sema3c) of DIO mice (Fig. 2j–m); type: in vivo, mouse
Method: For assessment of acute drug effects, animals were treated with the respective compounds 4 h before tissue harvesting. Dissected tissues were frozen immediately on dry ice, and RNA was isolated using RNeasy Mini Kits (Qiagen). mRNA levels were determined using TaqMan probes for fatty acid binding protein 4 (Fabp4, Mm00445878_m1), perilipin-2 (Plin2, Mm00475794_m1), aryl hydrocarbon receptor nuclear translocator-like protein 1 (Arntl, Mm00500223_m), semaphorin 3 C (Sema3c, Mm00443121_m1) and hypoxanthine phosphoribosyltransferase 1 (Hprt, Mm03024075_m1) in custom-made low density array cards (Thermo Fisher) or in single assays on a QuantStudio 7 Real-Time PCR system. Target gene expression was normalized to HPRT and fold change was calculated relative to vehicle-treated controls.

lean C57BL/6J mice = test: 14-day treatment of lean mice: body weight, plasma cholesterol, triglycerides, AST, ALT, heart weight (Fig. 2n–s); type: in vivo, mouse; design: Cholesterol / TAG: unit not given here
Method: as §3

C57BL/6J DIO mice [5] = test: Urinary albumin:creatinine ratio in DIO mice (Extended Data Fig. 2g); type: in vivo, mouse; conditions: 14-day treatment, 50 nmol kg−1 per day, in words
Description: Frozen urine samples from heterozygous GIPR^dn mice in a CD1 background (n = 3) served as positive controls. […] For each treatment group, uACR was computed as a ratio of urinary albumin (mg ml^−1) to urinary creatinine (mg ml^−1).

cFOS = cFOS positive neurons in hypothalamic nuclei (ARC, VMH, DMH) after a single s.c. dose (Fig. 7a,b; Extended Data Fig. 4a–c); type: in vivo, mouse
Method: For cFOS analysis, mice were treated s.c. with a single dose of 150 nmol kg^−1. Tissues were harvested 90 min following drug exposure. Fixed brains were coronally cryosectioned and 35-μm-thick slices were immunolabelled with the monoclonal rabbit anti-cFOS antibody (1:400, Invitrogen, no. MA5-15055) and the antirabbit Alexa546 secondary antibody (1:4,000, Invitrogen, no. A10040). According to the Allen mouse brain atlas, the ARC and the dorsomedial and ventromedial hypothalamic nuclei were captured at ×20 magnification using the Leica SP8 confocal microscope. In each region, the number of cFOS positive cells was counted in a blinded manner using Fiji/ImageJ software. For assessment of central nervous system drug appearance, mice (n = 3–4 each group) were treated with a single s.c. dose of the Cy5-labelled peptides (150 nmol kg^−1). After 90 min, tissues were harvested and processed similar to the cFOS analysis.

T1 sequence (P43220 24-463): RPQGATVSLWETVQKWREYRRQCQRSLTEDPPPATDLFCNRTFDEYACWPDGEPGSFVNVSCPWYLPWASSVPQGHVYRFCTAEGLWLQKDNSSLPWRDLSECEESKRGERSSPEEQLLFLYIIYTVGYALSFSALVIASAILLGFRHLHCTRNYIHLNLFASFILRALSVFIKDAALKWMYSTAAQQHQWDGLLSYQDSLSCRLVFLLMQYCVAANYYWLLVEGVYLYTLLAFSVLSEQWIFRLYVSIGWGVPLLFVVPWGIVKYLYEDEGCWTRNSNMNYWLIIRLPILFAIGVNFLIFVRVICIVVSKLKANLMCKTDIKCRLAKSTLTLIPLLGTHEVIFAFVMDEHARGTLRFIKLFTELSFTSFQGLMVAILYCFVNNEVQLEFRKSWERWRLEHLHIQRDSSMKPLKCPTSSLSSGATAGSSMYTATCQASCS

For `CCO[C@@H](Cc1ccc(OCCc2ccc(OS(C)(=O)=O)cc2)cc1)C(=O)O` [tesaglitazar, (S)-2-ethoxy-3-(4-(4-((methylsulfonyl)oxy)phenethoxy)phenyl) propanoic acid], the cAMP production (hGLP-1R [1]) was “had no effect”, the “lysosomal GLP-1R appearance (GLP-1R-Lamp1 colocalization)” value (hGLP-1R [2]) was “had no effect” and the “blood glucose” value (C57BL/6J DIO mice [3]; DIO mice, Figure 2e, individual mice) was 110 mg/dL and 133 mg/dL and 143 mg/dL and 112 mg/dL and 107 mg/dL and 150 mg/dL and 108 mg/dL. For the same compound, the insulin (C57BL/6J DIO mice [3]; DIO mice, Figure 2f, individual mice) was 1.06 ng/mL and 1.72 ng/mL and 0.73 ng/mL and 1.32 ng/mL and 2.56 ng/mL and 2.63 ng/mL and 1.88 ng/mL and 1.65 ng/mL, the “HOMA IR” value (C57BL/6J DIO mice [3]; animal 1 of the group) was 9.08 and the “HOMA IR” value (C57BL/6J DIO mice [3]; animal 2 of the group) was 17.60. For the same compound, the “HOMA IR” value (C57BL/6J DIO mice [3]; animal 3 of the group) was 17.24, the “HOMA IR” value (C57BL/6J DIO mice [3]; animal 4 of the group) was 17.30 and the “HOMA IR” value (C57BL/6J DIO mice [3]; animal 5 of the group) was 10.92. For the same compound, the “HOMA IR” value (C57BL/6J DIO mice [3]; animal 6 of the group) was 7.15, the “HOMA IR” value (C57BL/6J DIO mice [3]; animal 7 of the group) was 14.05 and the “HOMA IR” value (C57BL/6J DIO mice [3]; animal 8 of the group) was 6.44. The “expression of known PPAR target genes in liver (Fabp4, Plin2) and skeletal muscle (Arntl, Sema3c)” value ([4]; 30-week-old male DIO mice, 3 days, 50 nmol kg−1 per day, Fig. 2j–m, in words) was “induced expression of known PPAR target genes”, the Fabp4 ([4]; DIO mice, Figure 2j, gene expression in liver, individual mice) was 8.80 and 6.98 and 3.76 and 4.88 and 3.64 and 11.43 and 6.16 and 1.27 and the Plin2 ([4]; DIO mice, Figure 2k, gene expression in liver, individual mice) was 1.24 and 1.51 and 1.57 and 2.00 and 1.99 and 2.32 and 2.01 and 1.45. For the same compound, the Arntl ([4]; DIO mice, Figure 2l, gene expression in skeletal muscle, individual mice, sheet notes an outlier based on grubbs test) was 1.55 and 1.75 and 2.01 and 1.16 and 1.39 and 1.34 and 1.60 and 1.28, the Sema3c ([4]; DIO mice, Figure 2m, gene expression in skeletal muscle, individual mice, sheet notes an outlier based on grubbs test) was 1.70 and 1.69 and 1.38 and 1.05 and 1.02 and 1.72 and 1.95 and 2.14 and the “Heart weight/Tibia” value (lean C57BL/6J mice; 14-day treatment, individual animals (Fig. 2s)) was 88.25 and 101.20 and 133.32 and 102.79 and 98.68 and 111.28 and 98.00 and 103.11. The plasma cholesterol levels (lean C57BL/6J mice; 14 days, 50 nmol kg−1 per day, Fig. 2o, in words) was “reduced plasma cholesterol levels”, the TAG (lean C57BL/6J mice; plasma triglycerides, 14-day treatment, individual animals (Fig. 2p)) was 28.51 and 67.33 and 61.82 and 37.82 and 28.64 and 34.88 and 35.62 and 62.31 and the Cholesterol (lean C57BL/6J mice; plasma, 14-day treatment, individual animals (Fig. 2o)) was 68.85 and 109.93 and 69.31 and 90.92 and 65.38 and 84.58 and 89.99 and 80.51. For the same compound, the ALT (lean C57BL/6J mice; plasma, 14-day treatment, individual animals (Fig. 2q), in U/L (unit assumed)) was 7.51 and 24.40 and 11.85 and 4.07 and 8.93 and 10.70 and 5.04 and 14.23, the AST (lean C57BL/6J mice; plasma, 14-day treatment, individual animals (Fig. 2r), in U/L (unit assumed)) was 11.14 and 10.87 and 31.82 and 15.56 and 14.94 and 16.00 and 16.09 and 19.09 and the “urinary albumin:creatinine ratio” value (C57BL/6J DIO mice [5]) was “likewise not changed”. The “cFOS (cFos positive neurons in the ARC)” value (cFOS; Fig. 7b, 47-week-old male DIO mice, single s.c. 150 nmol kg−1, 90 min, individual mice) was 43 and 38 and 21 and 45, the cFOS (cFOS; Suppl. Fig. 4b, animal 1 of the group) was 55 and the cFOS (cFOS; Suppl. Fig. 4b, animal 2 of the group) was 124. The cFOS (cFOS; Suppl. Fig. 4b, animal 3 of the group) was 77, the cFOS (cFOS; Suppl. Fig. 4b, animal 4 of the group) was 96 and the cFOS (cFOS; Suppl. Fig. 4c, animal 1 of the group) was 13. The cFOS (cFOS; Suppl. Fig. 4c, animal 2 of the group) was 9, the cFOS (cFOS; Suppl. Fig. 4c, animal 3 of the group) was 15 and the cFOS (cFOS; Suppl. Fig. 4c, animal 4 of the group) was 20.
